{"source": "paper PMC13335693", "about": "“Discovery of a Potent Fluorescence Polarization Probe for Identifying USP1 Allosteric Inhibitors” (Advanced Science, 2026)", "origin": "cited, not measured here", "conditions": "stated for compound 4 as known drawback; no reference given", "data": [{"molecule": "Cc1cnc(-c2ccccc2C(C)C)nc1NCc1ccc(-n2ccnn2)cc1", "note": "[ML323]", "values": [{"measurement": "half-life in mouse liver microsomes (MLM)", "result": 15, "unit": "min"}]}]}
